Laboratory results published in article PMC10771296, “Plectasin: from evolution to truncation, expression, and better druggability” (Frontiers in Microbiology, 2023).
Converted amounts (≈) assume the structure as drawn. “Also recorded” adds a separate entry of the source. Where a SMILES comes first, the peptide text is derived from it. Bridges are numbered along the chain shown (N, C = ends).

Tests used:
[1] = test system: S. aureus ATCC 43300; assay: Inhibition zone screening of expression supernatants; type: cell-based, Staphylococcus aureus; details: induced supernatant of P. pastoris X-33 transformants, 48-well plates, 120 h
Description: The recombinant expression vector was constructed by ligating the designed and optimized sequence to the pPICZαA inducible expression vector, relying on the preference of the codon of P. pastoris. The linearized plasmid was transferred into P. pastoris X-33 for expression and the resulting product was verified for activity using an inhibition zone assay (against S. aureus ATCC 43300) before the active peptide was expressed at a high density in a 5-L fermenter ([Mao et al., 2015]). The supernatant was purified using the AKTA Express system. The fermentation supernatant was collected by centrifugation (5,000 rmp, 30 min), filtered with micro-filtration membranes ([…]). According to the isoelectric point of the target product, the corresponding A (50 mM sodium phosphate buffer, pH 6.7) and B (50 mM sodium phosphate buffer, 600 mM NaCl, pH 6.7) buffers were configured and purified by HiPrep SP FF cation exchange column (GE Healthcare). The protein samples were eluted by increasing the NaCl concentration in a stepwise manner, and the corresponding elution peak was collected. The purified product was verified using tricine-sodium dodecyl sulfate-polyacrylamide gel electrophoresis (Tricine-SDS-PAGE) and matrix-assisted laser desorption/ionization–time-of-flight mass spectrometry (MALDITOF MS) ([Zhang et al., 2014]).
A total of 15 recombinant plasmids were constructed. […]

[2] = test system: S. aureus ATCC25923; assay: MIC/MBC, micro broth dilution; type: cell-based, Staphylococcus aureus
Protocol: (§1) The minimum inhibitory concentration (MIC) of the peptides was assayed using the micro broth dilution method, which is an important indicator of the antibacterial activity of the AMPs ([Liu et al., 2021]). […] The MIC was defined as the lowest concentration of ones at which no visible bacterial growth was observed. All the assays were repeated thrice.

[3] = test system: S. aureus ATCC43300; assay: MIC/MBC, micro broth dilution; type: cell-based, Staphylococcus aureus
Protocol: as §1

[4] = test system: S. aureus CVCC546; assay: MIC/MBC, micro broth dilution; type: cell-based, Staphylococcus aureus
Protocol: as §1

[5] = test system: S. aureus E48; assay: MIC/MBC, micro broth dilution; type: cell-based, Staphylococcus aureus
Protocol: as §1

[6] = test system: murine macrophage RAW 264.7; assay: Cytotoxicity, MTT assay; type: cell-based, mouse
Protocol: The cytotoxicity of Ple-AB toward the murine macrophage RAW 264.7 (Peking Union Medical College) was tested using the MTT assay ([Wang et al., 2018]). Cells (2.5 × 10^4 CFU/mL) were incubated at 37°C for 24 h, and thereafter Ple-AB at a concentration of 2–256 μg/mL was added for 24 h. The supernatant was washed twice, […] 3-(4,5-dimethylthiazol-2-yl)-2,5-diphenyltetrazolium bromide (MTT) solution was added, and the mixture was incubated for 4 h. The absorbance of each well was measured at 570 nm using a microplate reader. PBS (Acontrol) was used as the control. Survival rate (%) = (A/Acontrol) × 100 was calculated.

[7] = test system: S. aureus ATCC43300; assay: Thermal stability read out as MIC; type: physicochemical, Staphylococcus aureus; details: 1 h; for MIC after heat treatment: triplicates
Protocol: (§2) The stability of Ple-AB was assessed based on its antibacterial activity against S. aureus ATCC43300. Temperature stability was determined by incubation at 20, 40, 60, 80, and 100°C for 1 h ([Li et al., 2020]). The pH stability was determined by incubation in buffers with a pH of 2, 4, 6, 8, and 10 for 4 h ([Yang et al., 2017]). The peptides were incubated with different concentrations of metal ions, serum, artificial gastric fluid, and simulated intestinal fluid to assess their stability in the blood and intestines ([Lyu et al., 2019]). All the treatments were performed in triplicates.

[8] = test system: S. aureus ATCC43300; assay: pH stability read out as MIC; type: physicochemical, Staphylococcus aureus; details: for MIC after pH treatment: triplicates
Protocol: as §2

[9] = test system: S. aureus ATCC43300; assay: Salt (metal ion) stability read out as MIC; type: cell-based, Staphylococcus aureus; details: triplicates
Protocol: as §2

[10] = test system: S. aureus ATCC43300; assay: Stability in simulated (artificial) gastric fluid read out as MIC; type: in vitro ADME, Staphylococcus aureus
Protocol: as §2

[11] = micro broth dilution, 1 × 10^5 CFU/mL, repeated thrice

CC[C@H](C)[C@@H]1NC(=O)[C@H](CO)NC(=O)[C@H](CCCCN)NC(=O)[C@@H]2CSSC[C@@H](C(=O)N[C@@H](Cc3ccc(O)cc3)C(=O)O)NC(=O)[C@H](CCCCN)NC(=O)[C@@H]3CSSC[C@H](NC(=O)[C@H](CCC(N)=O)NC(=O)[C@H](CCSC)NC(=O)[C@H](CCC(=O)O)NC(=O)[C@H](CC(=O)O)NC(=O)[C@H](Cc4c[nH]c5ccccc45)NC(=O)[C@@H]4CCCN4C(=O)[C@@H](NC(=O)CNC(=O)[C@H](Cc4ccccc4)NC(=O)CN)CSSC[C@H](NC(=O)[C@H](Cc4ccc(O)cc4)NC(=O)CNC(=O)CNC(=O)[C@H](CCCCN)NC(=O)[C@H](Cc4ccc(O)cc4)NC(=O)CNC(=O)[C@H](CCCCN)NC1=O)C(=O)N[C@@H](C)C(=O)N[C@@H](CCCCN)C(=O)NCC(=O)NCC(=O)N[C@@H](Cc1ccccc1)C(=O)N[C@@H](C(C)C)C(=O)N3)C(=O)N[C@@H](Cc1c[nH]cn1)C(=O)N[C@@H](CC(N)=O)C(=O)N[C@@H](Cc1c[nH]cn1)C(=O)N2 [Ple-AB] (H-GFGCPWDEMQCHNHCKSIKGYKGGYCAKGGFVCKCY-OH; disulfide 4-26, 11-33, 15-35; N-terminus and C-terminus assumed)
Antibacterial activity in inhibition circle screening [1]: better antibacterial activity; also recorded: normal or higher activity
MBC ([2]; S. aureus ATCC25923): 64 µg/mL (≈ 16 µM)
MIC [2, 11]: 16 µg/mL (≈ 4 µM)
MBC ([3]; S. aureus ATCC43300): 32 µg/mL (≈ 8 µM)
MIC [3, 11]: 16 µg/mL (≈ 4 µM)
MIC ([3]; untreated control of the stability test, triplicates): 16 µg/mL (≈ 4 µM)
MBC ([4]; S. aureus CVCC546): 16 µg/mL (≈ 4 µM)
MIC [4, 11]: 8 µg/mL (≈ 2 µM)
MBC ([5]; S. aureus E48): 16 µg/mL (≈ 4 µM)
MIC ([5]; bovine clinical strain, micro broth dilution, 1 × 10^5 CFU/mL, repeated thrice): 4 µg/mL (≈ 1 µM)
Cytotoxicity ([6]; RAW264.7, 256 μg/mL): < 1%
Cell survival rate ([6]; RAW264.7, 2–256 μg/mL, 24 h, MTT, A570): above 80%
MIC after heat treatment ([7]; 20°C): 16 µg/mL (≈ 4 µM)
MIC after heat treatment ([7]; 40°C): 16 µg/mL (≈ 4 µM)
MIC after heat treatment ([7]; 60°C): 16 µg/mL (≈ 4 µM)
MIC after heat treatment ([7]; 80°C): 16 µg/mL (≈ 4 µM)
MIC after heat treatment ([7]; 100°C): 32 µg/mL (≈ 8 µM)
Increase of MIC after heat treatment ([7]; 100°C, versus control): twofold
MIC after pH treatment ([8]; buffer pH 2, 4 h): 16 μg/mL
MIC after pH treatment ([8]; buffer pH 4, 4 h): 16 μg/mL
MIC after pH treatment ([8]; buffer pH 6, 4 h): 16 μg/mL
MIC after pH treatment ([8]; buffer pH 8, 4 h): 16 μg/mL
MIC after pH treatment ([8]; buffer pH 10, 4 h): 32 μg/mL
Increase of MIC after pH treatment ([8]; pH 10, 4 h, versus control): twofold
MIC with salts ([9]; Ca^2+ (2.5 mM)): 16 µg/mL
MIC with salts ([9]; Fe^3+ (4 μM)): 16 µg/mL
MIC with salts ([9]; K^+ (4.5 mM)): 16 µg/mL
MIC with salts ([9]; Mg^2+ (1 mM)): 16 µg/mL
MIC with salts ([9]; NH4^+ (6 μM)): 16 µg/mL
MIC with salts ([9]; Na^+ (150 mM)): 16 µg/mL
MIC with salts ([9]; Zn^2+ (8 μM)): 16 µg/mL
MIC after Simulated Gastric Fluid ([10]; Simulated Gastric Fluid (pepsin), 1-2 h, triplicates): 16 µg/mL (≈ 4 µM)
MIC after artificial gastric juice ([10]; artificial gastric juice (pepsin), 2 h): 16 µg/mL (≈ 4 µM)
